# Experimental data published in PMC10013835 (Proceedings of the National Academy of Sciences of the …, 2023).
# Residue numbers refer to the chain shown, from its start. Like-named read-outs stand apart in the source and are kept apart here.
# Tests used:
# PXR LBD [1] = biological target: T1, PXR LBD (Homo sapiens, UniProt O75469); assay: biochemical; conditions: PXR LBD binding [IC50 ± SD (µM)]
# T1 sequence (O75469 146-433 limits assumed): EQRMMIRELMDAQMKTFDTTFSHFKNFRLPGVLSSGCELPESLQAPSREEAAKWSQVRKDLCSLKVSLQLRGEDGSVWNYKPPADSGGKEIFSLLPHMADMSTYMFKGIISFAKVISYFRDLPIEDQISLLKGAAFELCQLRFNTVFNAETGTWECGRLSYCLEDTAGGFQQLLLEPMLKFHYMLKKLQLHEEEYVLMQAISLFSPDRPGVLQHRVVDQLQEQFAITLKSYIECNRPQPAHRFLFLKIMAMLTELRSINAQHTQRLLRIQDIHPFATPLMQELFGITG
# W299A mutant PXR = biological target: T2, W299A mutant PXR (Homo sapiens, UniProt O75469, W299A); conditions: 293T cells, 24 h, Fig. 6
# T2 sequence (O75469 1-434 W299A): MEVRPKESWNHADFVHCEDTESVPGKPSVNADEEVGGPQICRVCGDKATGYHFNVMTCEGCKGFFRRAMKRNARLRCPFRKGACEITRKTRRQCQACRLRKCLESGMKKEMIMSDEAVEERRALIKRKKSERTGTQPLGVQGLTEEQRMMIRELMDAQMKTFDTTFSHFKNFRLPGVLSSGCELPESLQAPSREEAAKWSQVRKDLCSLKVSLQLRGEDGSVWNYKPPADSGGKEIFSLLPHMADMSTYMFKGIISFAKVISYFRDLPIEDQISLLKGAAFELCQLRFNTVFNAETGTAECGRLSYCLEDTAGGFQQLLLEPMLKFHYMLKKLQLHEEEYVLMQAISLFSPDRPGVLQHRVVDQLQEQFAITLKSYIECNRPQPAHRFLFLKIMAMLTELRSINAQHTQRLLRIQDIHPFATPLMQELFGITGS
# PXR LBD [2] = biological target: T1, PXR LBD
# PXR = biological target: T3, PXR (Homo sapiens, UniProt O75469); assay type: cell-based; conditions: WT PXR-transfected 293T cells, 24 h, Fig. 5
# T3 sequence (O75469 1-434): T2 sequence (O75469 1-434 W299A) with A299W
Structure (SMILES),IC50 (PXR LBD [1]),"reporter activity for W299A PXR versus WT, in words (W299A mutant PXR)","Group (PXR LBD binding affinity group) (PXR LBD [2]; human, pH 7.5)","cellular PXR activity (luciferase reporter), in words (PXR)","IC50 (PXR LBD [1]; TR-FRET, GST-PXR LBD, rifampicin analog series)","FC, fold change, compound's IC50 divided by that of rifampicin (PXR LBD [2]; PXR LBD binding, relative to rifampicin)",Group (PXR LBD binding affinity group) (PXR LBD [2]; grouping relative to rifampicin affinity)
CO[C@H]1/C=C/O[C@@]2(C)Oc3c(C)c(O)c4c(c3C2=O)C2=NC3(CCN(CC(C)C)CC3)NC2=C(NC(=O)/C(C)=C\C=C\[C@H](C)[C@H](O)[C@@H](C)[C@@H](O)[C@@H](C)[C@H](OC(C)=O)[C@@H]1C)C4=O [Rifabutin],11.8 ± 4.4 µM,changed very little,1,–,–,–,–
CO[C@H]1/C=C/O[C@@]2(C)Oc3c(C)c(O)c4c(c3C2=O)C(=O)C=C(NC(=O)/C(C)=C\C=C\[C@H](C)[C@H](O)[C@@H](C)[C@@H](O)[C@@H](C)[C@H](OC(C)=O)[C@@H]1C)C4=O [Rifamycin S],0.054 ± 0.014 µM,nearly completely inactive,2,marginally better than rifampicin,–,–,–
CO[C@H]1/C=C/O[C@@]2(C)Oc3c(C)c(O)c4c(O)c(cc(O)c4c3C2=O)NC(=O)/C(C)=C\C=C\[C@H](C)[C@H](O)[C@@H](C)[C@@H](O)[C@@H](C)[C@H](OC(C)=O)[C@@H]1C [Rifamycin],0.067 ± 0.009 µM,–,2,marginally better than rifampicin,–,–,–
CO[C@H]1/C=C/O[C@@]2(C)Oc3c(C)c(O)c4c(O)c(c5c(nc6cc(C)ccn65)c4c3C2=O)NC(=O)/C(C)=C\C=C\[C@H](C)[C@H](O)[C@@H](C)[C@@H](O)[C@@H](C)[C@H](OC(C)=O)[C@@H]1C [Rifaximin],–,–,–,–,11.4 ± 3.3 µM,4.2,1
